Assay results from patent US20240173285A1, “COMPOSITIONS COMPRISING EPA AND METHODS OF USING THE SAME FOR TREATING AND/OR PREVENTING ENDOTHELIAL DYSFUNCTION IN A SUBJECT” (Amarin Pharmaceuticals Ireland Limited, priority 2021, published 2024).

Tests used:
HUVECs [1] = assay: Peroxynitrite (ONOO-) release from HUVECs measured with porphyrinic nanosensor; format: cell-based, human; conditions: 10 μM 2 hours, then IL-6 12 ng/ml 24 h; for ONOO- Release: calcium ionophore, mean ± SEM, N = 4-5
Source text: FIG. 5 is a schematic illustration of the ONOO— assay. The nanosensor is used to quantitate endothelial NO and ONOO— release in real time and is made by depositing a sensing material on the tip of carbon fiber with a diameter of only 0.5 μm. The fiber is sealed with nonconductive epoxy and electrically connected to wires (gold, copper) with conductive silver epoxy. Conductive films of polymeric Ni(II) tetrakis (3-methoxy-4-hydroxyphenyl) porphyrin and Mn(III) paracyclophanylporphyrin were used for the NO and ONOO— sensors, respectively.
Release of ONOO— from HUVECs was measured as previously described. Briefly, in parallel with the cellular preparations for proteomic analysis, HUVECs were stimulated with calcium ionophore and ONOO— was measured using a porphyrinic nanosensor (FIG. 5).

HUVECs [2] = assay: NO release from HUVECs measured with tandem porphyrinic nanosensors; format: cell-based, human; conditions: for NO Release: then IL-6 12 ng/ml 24 h, calcium ionophore, mean ± SEM, N = 4-5
Protocol: Human pulmonary ECs (PECs) and umbilical vein ECs (HUVECs) were treated with vehicle or EPA (40/10 μM in PECs/HUVECs) and IL-6 (12 ng/ml) for 24 hours. Proteomic analysis was performed using liquid chromatography/mass spectroscopy. […] NO release was measured in HUVECs using tandem porphyrinic nanosensors following stimulation with calcium.
NO release from HUVECs was measured as previously described. Briefly, in parallel with the cellular preparations for proteomic analysis, HUVECs were stimulated with calcium ionophore and NO was measured using tandem porphyrinic nanosensors.

Human pulmonary ECs = assay: Proteomic analysis (LC/MS) of pulmonary ECs treated with EPA after IL-6 exposure; format: cell-based; conditions: IL-6 12 ng/ml 2 hours, then EPA 24 h
Protocol: Human pulmonary ECs were treated with vehicle or EPA for 24 h after exposure to IL-6 at 12 ng/ml for 2 hours. Proteomic analysis was performed using liquid chromatography/mass spectroscopy to capture relative expression levels. Only significant changes in protein expression between treatment groups >1-fold with a p-value less than 0.05 were analyzed.

[3] = system: umbilical vein ECs (HUVECs); assay: Proteomic analysis (LC/MS) of HUVECs treated with EPA and IL-6 for 24 hours; format: cell-based, human; conditions: EPA 10 μM + IL-6 12 ng/ml
Protocol: (§1) Human pulmonary ECs (PECs) and umbilical vein ECs (HUVECs) were treated with vehicle or EPA (40/10 μM in PECs/HUVECs) and IL-6 (12 ng/ml) for 24 hours. Proteomic analysis was performed using liquid chromatography/mass spectroscopy. […] Human pulmonary ECs (PECs) and umbilical vein ECs (HUVECs) were treated with vehicle or EPA (40/10 μM in PECs/HUVECs) and IL-6 (12 ng/ml) for 24 hours. Proteomic analysis was performed using liquid chromatography/mass spectroscopy. […] NO release was measured in HUVECs using tandem porphyrinic nanosensors following stimulation with calcium.

[4] = system: heme oxygenase-1 (HMOX-1); assay: HMOX-1 expression relative to IL-6 in HUVECs (LC/MS proteomics); format: cell-based, human; conditions: 10 μM 2 hours, then IL-6 12 ng/ml 24 h
Protocol: (§2) HUVECs were treated with vehicle, EPA, or DHA (10 μM) for 2 hours, and then challenged with IL-6 (12 ng/ml) for 24 h hours. After incubation, cells were pelleted and frozen at −80° C. until proteomic analysis was performed. Cell pellets were lysed using methanol/chloroform extraction. Proteins were denatured, reduced, alkylated, and trypsin digested. Samples were then prepared for Tandem Mass Tag (TMT) 10plex labeling. A bicinchoninic acid (BCA) assay was performed on each sample to quantify the total protein in each sample, which is important to confirm equal amounts of each sample are added to the multiplex sample. Each peptide in a sample was given a unique, low molecular weight (typically 126-130 Da), and then the samples were combined. Relative protein expression levels among the various treatments were measured using LC/MS proteomic techniques. Following protein digest, peptides are separated over a reverse phase column and then identified based on their mass.
Each multiplexed sample was then fractionated to increase the overall protein coverage using high pH reversed phase fractionation and analyzed by LC/MS using a Dionex UltiMate 3000 RSLC in tandem with a Q-Exactive/Lumos Orbitrap Mass Spectrometer. The chromatography was performed using a 2-hour gradient on a Thermo Pepmap C18 column (100 Å pore size, 3.0 μm particle size, […]×150 mm) set at 50° C. […]

[5] = system: Platelet endothelial cell adhesion molecule 1 (PECAM-1); assay: PECAM-1 expression relative to IL-6 in HUVECs (LC/MS proteomics); format: cell-based, human; conditions: 10 μM 2 hours, then IL-6 12 ng/ml 24 h
Protocol: as §2, with “AA” for “DHA”, “mass. Each multiplexed sample was then fractionated to increase the overall protein coverage using high pH reversed phase fractionation and analyzed by LC/MS using a Dionex UltiMate 3000 RSLC in tandem with a Q-Exactive/Lumos Orbitrap Mass Spectrometer. The chromatography was performed using a 2-hour gradient on a Thermo Pepmap C18 column (100 Å pore size, 3.0 μm particle size, […]×150 mm) set at 50° C. […]” for “mass.”

Human PECs = assay: Fatty acid content of PECs by GC/MS; format: cell-based; conditions: PECs pretreated with EPA 40 μM, IL-6
Protocol: Human PECs were pretreated with vehicle or EPA (40 μM) for 2 hours, then challenged with IL-6 at 12 ng/ml for 24 hours. Proteomic analysis was performed using LC/MS to capture relative expression levels. Only significant changes in protein expression between treatment groups >2-fold were analyzed. Levels of intercellular adhesion molecule-1 (ICAM-1) were measured by immunochemistry. EPA, docosahexaenoic acid (DHA), docosapentaenoic acid (DPA), palmitic acid (PA), linoleic acid (LA) and arachidonic acid (AA) content was measured by GC/MS.

[6] = system: Human pulmonary ECs (PECs); assay: Proteomic analysis (LC/MS) of pulmonary ECs treated with EPA and IL-6 for 24 hours; format: cell-based; conditions: EPA 40 μM + IL-6 12 ng/ml
Protocol: as §1

[7] = Clinical study of human participants exposed to high-dose ethyl EPA; format: in vivo; conditions: high-dose exposure
Source text: Based on a clinical study of human participants, the inventors have discovered that exposure to a high-dose ethyl EPA (i.e., […]) is associated with fewer anemia AEs and higher hemoglobin and hematocrit. High-dose ethyl EPA exposure is also associated with higher levels of the heme derivative bilirubin, which is a potent antioxidant. […] Both biliverdin and bilirubin are potent antioxidants, but bilirubin is likely the stronger of the two. Bilirubin can be converted back into biliverdin rather than being eliminated, thus perpetuating both compounds' antioxidant effects.

## CCCCC/C=C\C/C=C\C/C=C\C/C=C\CCCC(=O)O [AA, arachidonic acid, reference compound]
HUVECs [1]
  ONOO- Release: 194 ± 9 nM

## CC/C=C\C/C=C\C/C=C\C/C=C\C/C=C\C/C=C\CCC(=O)O [DHA, docosahexaenoic acid, reference compound]
HUVECs [2]; 10 μM 2 hours
  NO Release: 404 ± 15 nM

## CC/C=C\C/C=C\C/C=C\C/C=C\C/C=C\CCCC(=O)O [EPA, eicosapentaenoic acid]
Human pulmonary ECs
  ACE level reduction: 1.1 fold
  ECE-1 level reduction: 1.3 fold
  Hsp90 increase compared to IL-6: 1.1 fold
  caveolin-1 downregulation compared to IL-6: 1.3 fold
[3]
  Platelet endothelial cell adhesion molecule (PECAM) downregulation: 1.2 fold
  heme-oxygenase-1 increase: 1.6 fold
  integrin alpha-V decrease: 1.5 fold
  superoxide dismutase increase: 1.6 fold
[4]
  HMOX-1 Expression Relative to IL-6, Fold Change Increase: 1.58 fold
  upregulation of inducible HMOX-1 compared to IL-6 alone: 160%
HUVECs [2]; 10 μM 2 hours, then IL-6 12 ng/ml 24 h (Example 5)
  increase of NO release compared to IL-6 alone: 13%
HUVECs [2]; 10 μM 2 hours
  NO Release: 421 ± 12 nM
HUVECs [2]; EPA 10 μM and IL-6 12 ng/ml 24 hours, calcium stimulation (Example 2)
  increase of NO release relative to IL-6 alone: 13%
[5]
  PECAM-1 Expression Relative to IL-6, Fold Change Increase: 1.22 fold
  decrease in PECAM-1: 120%
Human PECs
  reduction of PA (palmitic acid) levels: 34%
HUVECs [1]
  decrease of ONOO— release relative to IL-6 alone: 17%
  ONOO- Release: 181 ± 10 nM
[6]
  Platelet endothelial cell adhesion molecule (PECAM) downregulation: 1.2 fold
  amyloid-beta precursor protein decrease: 1.1 fold
  heme-oxygenase-1 increase: 1.9 fold
  integrin alpha-V decrease: 1.1 fold
  thrombin receptor decrease: 1.3 fold

## CC/C=C\C/C=C\C/C=C\C/C=C\C/C=C\CCCC(=O)OCC [ethyl EPA, eicosapentaenoic acid ethyl ester]
[7]
  anemia AEs: fewer

## IL-6: cytokine interleukin-6 used to challenge endothelial cells (12 ng/ml) [reference compound]
HUVECs [2]; 10 μM 2 hours
  NO Release: 371 ± 14 nM
HUVECs [1]
  ONOO- Release: 217 ± 10 nM
